Laboratory results: patent publication US20200354327A1, “COMPOUND HAVING STAT3 INHIBITORY ACTIVITY AND USE THEREOF” (CYTUS H&B CO., LTD., priority 2017, published 2020)

Key:
[1] = tested on: MDA-MB-231 cells; experiment: Matrigel invasion assay, MDA-MB-231; assay type: cell-based, human; conditions: MDA-MB-231, 24 hours, versus DMSO
Description: The growth factor-reduced Matrigel was diluted with a serum-free culture solution at a 1:3 ratio, transferred to a 24-well plate, and solidified at 37° C. for 5 hours. The cells were placed in a culture solution containing 1% serum and added to the solidified Matrigel, 600 μl of a culture solution containing 10% serum to which fibronectin was added at a concentration of […] was added thereto, and the cells were cultured for 24 hours. Thereafter, the cells were fixed and stained by adding Diffquick solution thereto and then observed under a Leica Application Suite microscope, and images were taken.

[2] = tested on: Bcl-2 and Bcl-XL; experiment: Real-time polymerase chain reaction of anti-apoptotic genes; assay type: cell-based, human
Description: RNA isolation and real-time polymerase chain reaction were performed as described previously (Jung J E, et al. FASEB J. 19, 1296-1298 (2005)). Primer specific for human-derived Bcl-XL, Bcl-2, Twist, and GADPH genes were mixed with QuantiFast SYBR Green PCR master mix, and each gene was amplified using the Applied Biosystems 7300 real-time PCR system to compare the expression level.

[3] = molecular target: T1, STAT3 (Homo sapiens, UniProt P40763); experiment: Western blot in U87-MG and MDA-MB-231 cells; assay type: cell-based; design: endogenous in cells; host or cells: L540, HDLM-2, U87-MG, MDA-MB-231, further human glioblastoma and breast cancer lines
Description: The human cancer cell lines used in the experiment were U87-MG (human malignant glioblastoma) and MDA-MB-231 (human malignant breast cancer) cell lines, and various kinds of human-derived blood and solid cancer cells including these human cancer cell lines were cultured as previously described (Jung J E, et al. FASEB J. 19, 1296-1298 (2005)). The human Hodgkin lymphoma cancer cell lines L540 and HLDM-2 used in the experiment were obtained from the German Collection of Microorganism and Cell Cultures (DSMZ, Germany) and cultured using RPMI 1640 medium containing 20% FBS in a 5% CO2 incubator at a temperature of 37° C.
(§1) Western blot analysis was performed (Jung J E, et al. FASEB J. 19, 1296-1298 (2005)). The cells were washed two times with PBS and suspended in the lysate (50 mM Tris-HCl, pH 7.4, 350 mM NaCl, 1% Triton X-100, 0.5% Nonidet P-40, 10% glycerol, 0.1% SDS, 1 mM EDTA, 1 mM EGTA, 1 mM Na3VO4, 1 mM PMSF, protease and phosphorylation inhibitor) and the cell membrane and nuclear membrane were crushed to lyse the cells. The insoluble protein fraction was removed by centrifugation, and the supernatant was mixed with SDS electrophoresis buffer and electrophoresis (SDS-PAGE) was performed to detect the protein with the desired antibody and to confirm the protein expression level.

[4] = molecular target: T1, STAT3; experiment: Western blot in STAT3-phosphorylated human malignant glioblastoma; assay type: cell-based; design: endogenous in cells; host or cells: L540, HDLM-2, U87-MG, MDA-MB-231, further human glioblastoma and breast cancer lines
Description: as §1

[5] = tested on: MDA-MB-231 cells; experiment: Wound healing assay, MDA-MB-231; assay type: cell-based, human; conditions: MDA-MB-231, 24 hours
Description: (§2) Wound healing assay was performed as previously described (Jung J E, et al. FASEB J. 19, 1296-1298 (2005)). The respective cells were dispensed into a 12-well plate (U87-MG: 5×10^5 cells/ml; MDA-MB-231: 3×10^5 cells/ml) and cultured until the cells proliferated 90% or more. Cells scraped off from the plate with the tip of the pipette were washed two times with PBS. After 24 hours, the proliferation (invasion) of cells at the part from which the cells were had been removed was observed under a microscope, and images were taken.

[6] = tested on: U87-MG cells; experiment: Survival of mice injected with U87-MG cells; assay type: in vivo; conditions: versus DMSO
[7] = molecular target: T1, STAT3; experiment: Western blot in human malignant breast cancer cell lines; assay type: cell-based; design: endogenous in cells; host or cells: L540, HDLM-2, U87-MG, MDA-MB-231, further human glioblastoma and breast cancer lines
Description: as §1

[8] = tested on: U87-MG cells; experiment: Cell proliferation assay, U87-MG; assay type: cell-based, human; conditions: by time period, versus DMSO
Description: Cell proliferation assay was performed as previously described (Won C, et al. Anticancer Res. 30, 481-488 (2010)). In order to analyze the cell proliferation rate, U87-MG and MDA-MB-231 cell lines were dispensed into a 6-well culture dish, then treated with DMSO and ODZ10117 the next day, and stained with crystal violet after 0 h, 24 h, 48 h, and 72 h, and the number of live cells was calculated using a hemocytometer.

[9] = tested on: U87-MG cells; experiment: Wound healing assay, U87-MG; assay type: cell-based, human; conditions: 24 hours
Description: as §2

[10] = tested on: p-STAT3, Cleaved Caspase-3, Bcl-XL, Ki67 and MMP2; experiment: Tumor histology and immunostaining of xenograft tumor sections; assay type: in vivo, BALB/c nude mice; conditions: 7th day of drug administration
Description: Tumors isolated from mice were fixed with formalin and embedded with paraffin, and sections were cut from each paraffin block. For histological evaluation, the sections were stained with hematoxylin-eosin, phospho-STAT3, cleaved caspase-3, Bcl-XL, Ki67, and pro/active MMP-2, respectively. The paraffin of the sections was removed, moisture was removed using alcohol, and then the sections were heated in 10 mM sodium citrate buffer (pH: 6.0) for 5 minutes with microwaves. Non-specific binding was removed by reacting the sections with a PBS solution containing 2.5% bovine serum albumin and 2% normal goat serum for 1 hour. The sections were reacted with antibodies against phospho-STAT3, cleaved caspase-3, Bcl-XL, Ki67, and pro/active MMP-2 diluted 1:100 overnight at 4° C. As a negative control, the sections were reacted with a dilution solution in a state of not containing primary antibodies. The sections were then washed and reacted with secondary antibodies labeled with appropriate biotin, and the location and expression of the bound antibodies were confirmed using an avidin-biotin-horseradish complex. For histological evaluation, each stained section was observed under a microscope at 100-fold and 400-fold magnifications and analysis was performed using a Sony XC-77 CCD camera and a microcomputer imaging device Model 4 image analysis system.

T1 sequence (P40763 whole entry): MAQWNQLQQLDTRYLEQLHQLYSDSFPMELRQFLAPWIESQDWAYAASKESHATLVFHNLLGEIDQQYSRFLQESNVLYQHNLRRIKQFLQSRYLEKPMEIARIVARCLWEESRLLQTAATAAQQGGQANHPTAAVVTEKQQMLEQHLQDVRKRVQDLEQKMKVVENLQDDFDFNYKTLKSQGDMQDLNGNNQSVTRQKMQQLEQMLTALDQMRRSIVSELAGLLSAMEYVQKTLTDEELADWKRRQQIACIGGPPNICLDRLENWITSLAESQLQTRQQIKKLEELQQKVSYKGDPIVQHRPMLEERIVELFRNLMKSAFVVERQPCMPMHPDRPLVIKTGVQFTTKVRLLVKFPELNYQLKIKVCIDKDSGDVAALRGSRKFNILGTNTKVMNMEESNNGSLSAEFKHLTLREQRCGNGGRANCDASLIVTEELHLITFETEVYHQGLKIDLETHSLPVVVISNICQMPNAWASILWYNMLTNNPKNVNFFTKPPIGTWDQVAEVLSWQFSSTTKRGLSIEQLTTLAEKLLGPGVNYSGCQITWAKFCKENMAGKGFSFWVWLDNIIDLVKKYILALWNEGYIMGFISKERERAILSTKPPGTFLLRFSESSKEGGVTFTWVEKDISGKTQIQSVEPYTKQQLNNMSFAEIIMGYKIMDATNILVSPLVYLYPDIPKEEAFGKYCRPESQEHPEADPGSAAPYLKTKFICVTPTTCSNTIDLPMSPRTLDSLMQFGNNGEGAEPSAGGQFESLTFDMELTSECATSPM

Clc1ccc(OCc2noc(C(Cl)(Cl)Cl)n2)c(Cl)c1 [ODZ10117, 3-(2,4-dichloro-phenoxymethyl)-5-trichloromethyl-[1,2,4]oxadiazole] was tested, and the cell invasion [1] was “significantly decreased cell invasion in both the two cell lines”, the “expression levels of anti-apoptotic genes Bcl-2 and Bcl-XL” value [2] was “effectively inhibited the expression of these genes” and the “phosphorylation of tyrosine 705 and serine 727 residues of STAT3” value [3] was “significantly inhibited phosphorylation of tyrosine 705 and serine 727 residues of STAT3”. For the same molecule, the “phosphorylation of tyrosine 705 of STAT3” value [4] was “inhibited the phosphorylation of tyrosine 705 of STAT3 in STAT3-phosphorylated human malignant glioblastoma in a concentration-dependent manner”, the “time to complete inhibition of phosphorylation of STAT3 after treatment” value [4] was no more than 2 h and the “STAT3 inhibitory efficacy compared with known inhibitors” value ([4]; versus NSC628869 and NSC74859) was “superior STAT3 inhibitory efficacy to NSC628869 and NSC74859”. For the same molecule, the cell migration [5] was “significantly inhibited the migration of these cells”, the survival time [6] was “survival time increased” and the “STAT3 inhibitory efficacy compared with napabucasin” value [7] was “STAT3 inhibitory efficacy similar to that of napabucasin at high concentrations”. The “phosphorylation of tyrosine 705 of STAT3” value [7] was “inhibited the phosphorylation of tyrosine 705 of STAT3 in human malignant breast cancer cell lines in a concentration-dependent manner”, the “time to complete inhibition of phosphorylation of STAT3 after treatment” value [7] was no more than 2 h and the “STAT3 inhibitory efficacy compared with known inhibitors” value ([7]; versus NSC628869 and NSC74859) was “superior STAT3 inhibitory efficacy to NSC628869 and NSC74859”. The cell proliferation [8] was “effectively inhibited the proliferation of the two cell lines”, the cell migration [9] was “significantly inhibited the migration of these cells” and the “activity of caspase-3 in tumor tissues” value [10] was “increased the activity of caspase-3”. The “expression of Bcl-XL in tumor tissues” value [10] was “significantly decreased the expression”, the “expression of Ki67 in tumor tissues” value [10] was “significantly decreased the expression of Ki67” and the “expression of pro/active MMP2 in tumor tissues” value [10] was “significantly decreased the expression”. For the same molecule, the “phosphorylation of STAT3 in tumor tissues” value ([10]; versus DMSO) was “phosphorylation of STAT3 significantly decreased”.
